Columns and labels:
generalist predator = conditions: volatiles released individually, Nicotiana attenuata; Kessler et al.; cited from earlier work
[1] = tested on: Oedaleus decorus asiaticus; conditions: both sexes; Chen et al.; cited from earlier work
Angaracris barabensis = conditions: both sexes; Chen et al.; cited from earlier work
V. pensylvanica = conditions: Davis et al.; MacDonald et al.; McGovern et al.; cited from earlier work
AgOr2 = target: T1, AgOr2 (Anopheles gambiae, UniProt Q8WTE6); experiment: Single-unit electrophysiology of Drosophila ab3A neuron (Δhalo) expressing AgOr2; type: in vivo; conditions: liquid odors diluted 10^−4, solid odors 0.2 mg/ml in paraffin oil, 0.5 s pulse, FIG. 1b
T1 construct: expressed in transfected cells; host or cells: Transgenic Drosophila, ab3A olfactory receptor neuron lacking Or22a/Or22b (Δhalo), GAL4-UAS
T1 sequence (Q8WTE6 1-378): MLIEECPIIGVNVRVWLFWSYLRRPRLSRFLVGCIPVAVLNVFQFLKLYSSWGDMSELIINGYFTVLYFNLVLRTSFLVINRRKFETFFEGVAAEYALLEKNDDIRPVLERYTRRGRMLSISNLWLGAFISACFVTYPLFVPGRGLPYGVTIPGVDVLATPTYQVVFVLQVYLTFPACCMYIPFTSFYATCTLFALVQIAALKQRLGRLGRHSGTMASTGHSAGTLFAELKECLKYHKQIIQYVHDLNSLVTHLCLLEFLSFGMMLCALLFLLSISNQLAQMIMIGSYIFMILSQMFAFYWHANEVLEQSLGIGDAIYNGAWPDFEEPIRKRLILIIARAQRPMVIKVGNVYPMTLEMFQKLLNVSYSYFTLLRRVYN
T1 sequence (Q9VNB5 1-486 partner): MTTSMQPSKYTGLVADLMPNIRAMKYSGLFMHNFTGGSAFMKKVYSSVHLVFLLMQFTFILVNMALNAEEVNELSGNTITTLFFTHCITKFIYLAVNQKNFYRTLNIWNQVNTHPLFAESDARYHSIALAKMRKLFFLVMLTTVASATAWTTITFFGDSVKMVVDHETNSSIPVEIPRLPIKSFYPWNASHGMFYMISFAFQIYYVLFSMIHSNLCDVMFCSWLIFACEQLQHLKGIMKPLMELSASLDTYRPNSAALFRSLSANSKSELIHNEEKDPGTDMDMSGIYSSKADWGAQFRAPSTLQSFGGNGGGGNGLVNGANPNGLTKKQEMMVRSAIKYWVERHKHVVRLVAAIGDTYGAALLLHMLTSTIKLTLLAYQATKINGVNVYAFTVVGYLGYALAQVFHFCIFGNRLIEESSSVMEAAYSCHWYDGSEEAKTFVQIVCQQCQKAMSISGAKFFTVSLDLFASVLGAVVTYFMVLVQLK
Experimental: (§1) In summary, odorant receptors are introduced specifically into Δab3A using the GAL4/UAS system and Or22a-GAL4 is used to drive expression from a UAS-Or construct. The odorant response of the neuron (Δab3A:OrX) is assayed electrophysiologically.
(§2) To investigate the function of the A. gambiae odorant receptor genes AgOr1 and AgOr2 directly, these genes were expressed in the Drosophila olfactory receptor neuron that lacks odor response due to the deletion of its endogenous receptor genes, Or22a and Or22b using an Or22a promoter and the GAL4-UAS system.
(§3) AgOr1 and AgOr2 were expressed in the Δhalo background using the GAL4-UAS system. Specifically AgOr1 or AgOr2 was placed under the control of a UAS and expressed using the 22a-GAL4 driver so as to drive its expression in ab3A cells. […]
(§4) Action potentials of the ORNs in a sensillum were recorded by placing an electrode through the sensillum wall into contact with the lymph that bathes the dendrites. […] Recordings were analyzed offline in IGOR-Pro (WaveMetrics, Lake Oswego, Oreg.).
(§5) Odor stimuli were presented from Pasteur pipettes holding solutions of chemicals in paraffin oil on filter paper. […] Responses of the ab3A neurons were quantified by subtracting the number of impulses (i.e., spikes) in 500 ms of spontaneous activity from the number in the 500 ms after the onset of odor stimulation (FIG. 1).

[2] = tested on: Rhagoletis pomonella flies; conditions: Nojima et al.; cited from earlier work
AgOr1 = target: T2, AgOr1 (Anopheles gambiae, UniProt Q8WTE7); experiment: Single-unit electrophysiology of Drosophila ab3A neuron (Δhalo) expressing AgOr1; type: in vivo; conditions: liquid odors diluted 10^−4, solid odors 0.2 mg/ml in paraffin oil, 0.5 s pulse, FIG. 1a
T2 construct: expressed in transfected cells; host or cells: Transgenic Drosophila, ab3A olfactory receptor neuron lacking Or22a/Or22b (Δhalo), GAL4-UAS
T2 sequence (Q8WTE7 1-417): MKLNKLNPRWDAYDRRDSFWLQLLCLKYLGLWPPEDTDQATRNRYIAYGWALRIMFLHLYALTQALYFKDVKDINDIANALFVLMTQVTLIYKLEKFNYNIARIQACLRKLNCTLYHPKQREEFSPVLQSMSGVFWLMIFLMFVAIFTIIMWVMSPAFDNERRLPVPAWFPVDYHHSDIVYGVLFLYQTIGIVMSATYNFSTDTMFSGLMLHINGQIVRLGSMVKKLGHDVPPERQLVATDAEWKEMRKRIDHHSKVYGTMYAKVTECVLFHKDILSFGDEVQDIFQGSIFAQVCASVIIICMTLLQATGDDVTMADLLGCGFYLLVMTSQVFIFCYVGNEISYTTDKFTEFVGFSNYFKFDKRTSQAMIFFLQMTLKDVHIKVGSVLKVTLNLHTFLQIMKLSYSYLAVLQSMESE
T2 sequence (Q9VNB5 1-486 partner): T1 sequence (Q9VNB5 1-486 partner)
Experimental: as §1, §2, §3, §4, §5

[3] = tested on: Glossina morsitans morsitans; conditions: Vale et al., 1988; cited from earlier work
Apol PBP1a = conditions: 3H-labeled ligand; cited from earlier work
Apol PBP3 = conditions: 3H-labeled ligand; cited from earlier work
Aper PBP1 = conditions: cited from earlier work
Aper PBP2 = target: T3, Aper PBP2 (Antheraea pernyi, UniProt Q17078); conditions: cited from earlier work
T3 construct: from tissue; host or cells: Sensory hair homogenates of A. pernyi (study quoted from the literature)
T3 sequence (Q17078 23-164): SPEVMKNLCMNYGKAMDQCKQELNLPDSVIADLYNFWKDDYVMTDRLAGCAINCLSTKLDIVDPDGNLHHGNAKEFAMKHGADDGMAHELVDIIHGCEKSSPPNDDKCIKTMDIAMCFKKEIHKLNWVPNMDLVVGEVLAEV

ab3A neuron = conditions: cited from earlier work; for strongest responses of the A neuron: sensilla expressing Or22a and Or22b
B neuron = conditions: sensilla expressing Or22a and Or22b; cited from earlier work
lepidopteran = conditions: Nicotiana attenuata; Kessler et al.; cited from earlier work

CC(C)=CCC[C@]1(C)[C@H]2CC=C(C)[C@@H]1C2 (relative stereo) [cis-alpha-bergamotene]
egg predation rates by a generalist predator (generalist predator): increased egg predation rates

CCCCCCCO [1-heptanol]
EAG responses [1]: Strong EAG responses | EAG responses (Angaracris barabensis): Strong EAG responses

CCCCCCO [1-hexanol]
EAG responses [1]: Strong EAG responses | EAG responses (Angaracris barabensis): Strong EAG responses

CC=CC=CCOC(=O)CCC [2,4-Hexadienyl butyrate]
attraction of V. pensylvanica (V. pensylvanica): attract

CC=CC=CCOC(=O)C(C)C [2,4-hexadienyl isobutyrate]
attraction of V. pensylvanica (V. pensylvanica): attract

CC=CC=CCOC(=O)CC [2,4-hexadienyl propionate]
attraction of V. pensylvanica (V. pensylvanica): attract

Cc1ccccc1O [2-methylphenol]
odor response conferred by AgOr2 (AgOr2): strong response

CC(C)CCO [3-methylbutan-1-ol]
EAD activity [2]: Consistent EAD activity

C=C/C=C(\C)CCC=C(C)C [4,8-dimethyl-1,3(E),7-nonatriene]
EAD activity [2]: Consistent EAD activity

Cc1ccc(O)cc1 [4-methylphenol]
odor response of mutant flies expressing AgOr1 (AgOr1): strong response | odor response conferred by AgOr2 (AgOr2): not | effectiveness of traps for the tsetse fly [3]: increase the effectiveness of traps

CCCC/C=C\CCC/C=C/CCCCCOC(C)=O [AC1, (E,Z)-6,11-hexadecadienyl acetate]
binding to Apol PBP1a (Apol PBP1a): bound | binding to Apol PBP3 (Apol PBP3): bound | binding affinity to Aper PBP1 (Aper PBP1): showed binding affinity

CCCC/C=C\CCC/C=C/CCCCC=O [ALD, (E,Z)-6,11-hexadecadienal]
binding to Apol PBP1a (Apol PBP1a): no binding | binding to Apol PBP3 (Apol PBP3): no binding | binding affinity to Aper PBP2 (Aper PBP2): showed binding affinity

CCC/C=C/C=O [E-2-hexen-1-al]
EAG responses [1]: Strong EAG responses | EAG responses (Angaracris barabensis): Strong EAG responses

CCC/C=C/CO [E-2-hexen-1-ol]
EAG responses [1]: Strong EAG responses | EAG responses (Angaracris barabensis): Strong EAG responses

CC/C=C/CCO [E-hexen-3-ol-1]
EAG responses [1]: Strong EAG responses | EAG responses (Angaracris barabensis): Strong EAG responses

CCC/C=C\CO [Z-hexen-2-ol-1]
EAG responses [1]: Strong EAG responses | EAG responses (Angaracris barabensis): Strong EAG responses

CC/C=C\CCOC(C)=O [Z-hexen-3-yl acetate]
EAG responses [1]: Strong EAG responses | EAG responses (Angaracris barabensis): Strong EAG responses

CCCCCC(=O)OCCCC [butyl hexanoate]
EAD activity [2]: Consistent EAD activity

CC/C=C\CCO [cis-3-hexen-1-ol]
egg predation rates by a generalist predator (generalist predator): increased egg predation rates

CC(=O)CCC1=C(C)CCCC1(C)C [dihydro-beta-ionone]
EAD activity [2]: Consistent EAD activity

CCOC(C)=O [ethyl acetate]
strongest responses of the A neuron (ab3A neuron): strongest responses | EAD activity [2]: Consistent EAD activity

CCCC(=O)OCC [ethyl butyrate]
sensitivity of ab3A (ab3A neuron; in vivo): highly sensitive | strongest responses of the A neuron (ab3A neuron): strongest responses

CCCCCC(C)=O [heptanone]
strongest responses of the B neuron (B neuron): strongest responses

CCCCCCCOC(=O)CCC [heptyl butyrate]
attraction of V. pensylvanica (V. pensylvanica): attract

CCCCCCO [hexanol]
strongest responses of the B neuron (B neuron): strongest responses

CC(=O)OCCC(C)C [isoamyl acetate]
EAD activity [2]: Consistent EAD activity

C=CC(C)(O)CCC=C(C)C (stereo not shown) [linalool]
egg predation rates by a generalist predator (generalist predator): increased egg predation rates | lepidopteran oviposition rates (lepidopteran): decreased lepidopteran oviposition rates

C=CC(O)CCCCC (stereo not shown) [octenol]
strongest responses of the B neuron (B neuron): strongest responses

CCCCCCCCOC(=O)CCC [octyl butyrate]
attraction of V. pensylvanica (V. pensylvanica): attract

CCCCCOC(C)=O [pentyl acetate]
strongest responses of the A neuron (ab3A neuron): strongest responses

From patent US20070157323A1, “In vivo odorant receptor systems and their uses” (priority 2003, published 2007)
